Values quoted from earlier work, collected in patent US8524697B2, “C20-C21 substituted glucocorticoid receptor agonists” (Merck Sharp & Dohme Corp., priority 2007, dated 2013).

Biological target: SYK kinase (Homo sapiens, UniProt P43405)
Conditions: symptoms associated with chronic nasal congestion

absolute difference over placebo: 9%
improvement from baseline measurements (prior to drug initiation): up to 38%
relative improvement over placebo: greater than 20%
SMILES: Oc1cccc(Nc2ncc(F)c(Nc3cccc(O)c3)n2)c1 [Example R112]
